Source: patent publication US8912189B2, “Pyridopyrazine derivatives and their use” (Aeterna Zentaris GmbH, priority 2011, dated 2014)

Key:
PI3Kalpha = molecular target: T1, PI3Kalpha (Homo sapiens, UniProt P42336); test: Cell-free kinase assay (ALPHA technology), PI3Kalpha; assay type: biochemical; details: at 100 μM ATP; recombinant human kinase
T1 construct: partly as full-length kinases, partly as shortened fragments, but at least consisting of the functional kinase domains; purchased Upstate 14-602
Description: The inhibitory effect of the compounds according to the invention was tested on various serine/threonine, tyrosine and lipid kinases in enzymatic assays. Recombinant human kinases such as, for example, Erk2, PI3Kalpha and others were used in this case, partly as full-length kinases, partly as shortened fragments, but at least consisting of the functional kinase domains. The commercial kinase proteins (Proqinase, Upstate) were used as recombinant fusion proteins with GST (glutathion-S-transferase) or His-Tag. Depending on the type of substrate, the various kinase reactions were quantified by means of suitable ALPHA™ beads (Perkin-Elmer).
The substance testing is described in detail hereinafter for the Erk assay. To determine the IC50 value, the potential inhibitor substances were investigated in 10 semi-logarithmically graded concentrations of 3.16 nM-100 μM.
b) PI3K-ALPHAs (e.g. PI3Kalpha): the test substance, 1 ng PI3Kalpha (#14-602, Upstate), 100 μM ATP and 20 μM PIP2 substrate (#64910, Cayman Chemicals) were incubated on a 384-well Optiplate (Perkin-Elmer) for 1 h in 50 mM Hepes, 50 mM NaCl, 5 mM MgCl2, 0.05% Chaps, 5 mM DTT at pH 7.4. The kinase reaction was then stopped by adding ALPHA bead mixes (10 μg/ml, #6760603/Perkin-Elmer) pre-incubated with 1 nM GST:Grp1 fusion protein (Upstate) and 15 nM biotinylated PIP3 (#10009531, Cayman Chemicals) in 50 mM Hepes, 50 mM NaCl, 50 mM EDTA and 0.1% BSA and left to stand overnight.
The fluorescence was detected the following morning in a Envision plate reader (Perkin-Elmer).
The %-inhibition values per substance concentration were calculated by means of the following formula from the raw data determined in the Envision plate reader:
Eight determinations were made for each control and two for the substance samples. The 0% control either contains no ATP or no substrate, the 100% control (fully active kinase) contains no test substance. The IC50 values were determined using GraphPadPrism.

Hct116 = test: XTT assay, anti-proliferative effect; assay type: cell-based; details: Homo sapiens, HCT-116; Hct116 cells, ~48 h incubation
Description: The principle of this test is based on the intracellular reduction of the tetrazolium dye XTT (sodium 3′-[1-(phenylaminocarbonyl)-3,4-tetrazolium]-bis(4-methoxy-6-nitro)benzene sulfonic acid, Sigma) to a formazan dye by mitochondrial dehydrogenases. The dye is only formed by metabolically active cells and its photometrically measurable intensity is a quantitative indicator for the presence of living cells. The reduction of dye formation by incubation of the cells with substances serves as a parameter for the anti-proliferative effect.
The tumour cell lines (ATCC) were injected into 96-well microtitre plates in a defined cell number (1250 cells/well for Hct116) and then incubated overnight in an incubator at 37° C., 5% CO2 and 95% air humidity. The test substances were prepared as stock solutions (10 mM) in DMSO. To determine the EC50 values the potential inhibitor substances were added to the cells in half-logarithmically graded dilutions, resulting in final concentrations of 1.58 nM-50 μM. The cell plates were then incubated for ˜48 h in an incubator at 37° C., 5% CO2 and 95% air humidity.
For the detection reaction the substrate XTT was mixed with PMS (N-Methyl dibenzopyrazine methylsulfate, Sigma) and added to the cells so that a final concentration of 325 μg XTT/ml and 2.5 μg PMS/ml was obtained. It was then incubated for 3 h at 37° C., 95% air humidity. The formazan salt formed by the cellular dehydrogenases could then be quantified by adsorption at 490 nm.
The % inhibition value was evaluated by means of the following formula from the values for the optical densities measured in each case at 490 nm:
Eight determinations were made for each control and two for the substance samples. The 0% control contains no cells, the 100% control (proliferation control) contains no test substance. The EC50 values were determined using GraphPadPrism.

Erk2 = molecular target: T2, Erk2; test: Cell-free kinase assay (ALPHA technology), Erk2; assay type: biochemical; details: at 10 μM ATP; recombinant human kinase
T2 construct: partly as full-length kinases, partly as shortened fragments, but at least consisting of the functional kinase domains; purchased Upstate 14-173
T2 sequence (P63085 2-358 limits assumed): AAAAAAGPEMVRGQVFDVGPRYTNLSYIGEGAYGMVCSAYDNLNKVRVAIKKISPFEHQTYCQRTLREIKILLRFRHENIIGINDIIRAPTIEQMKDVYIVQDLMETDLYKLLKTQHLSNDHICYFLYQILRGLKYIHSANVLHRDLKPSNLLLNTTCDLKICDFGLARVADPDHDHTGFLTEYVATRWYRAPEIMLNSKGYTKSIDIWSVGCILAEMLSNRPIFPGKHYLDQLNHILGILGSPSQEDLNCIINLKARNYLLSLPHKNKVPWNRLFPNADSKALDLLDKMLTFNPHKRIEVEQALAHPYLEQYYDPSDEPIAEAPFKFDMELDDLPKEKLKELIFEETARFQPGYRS

T1 sequence (P42336 whole entry, the tested form may be a part): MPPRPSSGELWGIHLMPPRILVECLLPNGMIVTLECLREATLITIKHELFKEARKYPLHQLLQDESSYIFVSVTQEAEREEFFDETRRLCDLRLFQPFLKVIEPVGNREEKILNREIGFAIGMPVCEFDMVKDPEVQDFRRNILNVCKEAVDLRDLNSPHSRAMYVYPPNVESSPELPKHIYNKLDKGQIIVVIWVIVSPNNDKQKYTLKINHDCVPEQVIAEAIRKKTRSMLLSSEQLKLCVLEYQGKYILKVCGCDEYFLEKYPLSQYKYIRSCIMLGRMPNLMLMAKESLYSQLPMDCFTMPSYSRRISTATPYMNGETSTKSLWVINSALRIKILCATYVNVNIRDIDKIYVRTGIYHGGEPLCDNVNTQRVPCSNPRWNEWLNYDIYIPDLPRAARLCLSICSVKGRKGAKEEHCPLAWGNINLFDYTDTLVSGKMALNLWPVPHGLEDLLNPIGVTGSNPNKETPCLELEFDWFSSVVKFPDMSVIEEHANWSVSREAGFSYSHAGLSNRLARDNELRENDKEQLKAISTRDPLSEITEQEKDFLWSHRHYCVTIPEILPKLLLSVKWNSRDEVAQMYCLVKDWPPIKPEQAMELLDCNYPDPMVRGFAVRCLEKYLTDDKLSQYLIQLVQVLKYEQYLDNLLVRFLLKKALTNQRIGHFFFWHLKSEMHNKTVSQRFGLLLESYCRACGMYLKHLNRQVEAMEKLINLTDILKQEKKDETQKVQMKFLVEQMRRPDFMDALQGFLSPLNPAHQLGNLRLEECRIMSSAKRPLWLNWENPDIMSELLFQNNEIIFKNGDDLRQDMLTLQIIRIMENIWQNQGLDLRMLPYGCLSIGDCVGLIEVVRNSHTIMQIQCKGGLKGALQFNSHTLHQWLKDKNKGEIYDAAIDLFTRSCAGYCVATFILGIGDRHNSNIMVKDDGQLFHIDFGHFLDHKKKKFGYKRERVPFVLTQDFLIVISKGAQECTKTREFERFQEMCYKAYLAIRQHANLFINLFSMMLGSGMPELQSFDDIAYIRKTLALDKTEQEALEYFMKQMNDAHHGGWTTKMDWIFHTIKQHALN
T1 sequence (P27986 whole entry partner, the tested form may be a part): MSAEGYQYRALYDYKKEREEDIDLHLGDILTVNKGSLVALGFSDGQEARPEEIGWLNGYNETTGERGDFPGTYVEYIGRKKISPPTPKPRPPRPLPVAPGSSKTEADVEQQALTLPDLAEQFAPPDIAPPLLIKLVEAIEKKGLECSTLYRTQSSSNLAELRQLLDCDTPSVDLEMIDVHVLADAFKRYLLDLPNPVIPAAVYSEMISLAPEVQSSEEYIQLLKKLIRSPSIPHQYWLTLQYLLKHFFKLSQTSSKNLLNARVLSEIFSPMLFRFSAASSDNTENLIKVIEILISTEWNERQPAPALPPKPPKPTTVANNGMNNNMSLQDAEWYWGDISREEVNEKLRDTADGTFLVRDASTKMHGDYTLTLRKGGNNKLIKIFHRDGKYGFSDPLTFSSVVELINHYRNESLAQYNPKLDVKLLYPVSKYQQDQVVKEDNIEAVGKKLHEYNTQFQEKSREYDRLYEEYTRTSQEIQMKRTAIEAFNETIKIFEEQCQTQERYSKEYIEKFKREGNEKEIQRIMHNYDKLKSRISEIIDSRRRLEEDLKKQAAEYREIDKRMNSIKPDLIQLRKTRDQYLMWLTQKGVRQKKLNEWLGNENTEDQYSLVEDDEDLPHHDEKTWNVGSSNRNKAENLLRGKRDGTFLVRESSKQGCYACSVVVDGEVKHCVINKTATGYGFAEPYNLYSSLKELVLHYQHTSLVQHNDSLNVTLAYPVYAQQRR

With `CCNC(=S)Nc1ccc2ncc(-c3cnn(Cc4cccc(S(C)(=O)=O)c4)c3)nc2n1` [Compound 65, 1-Ethyl-3-{3-[1-(3-methanesulfonyl-benzyl)-1H-pyrazol-4-yl]-pyrido[2,3-b]pyrazin-6-yl}-thiourea] as the molecule, how does the IC50 (PI3Kalpha) read?
Its IC50 is 180 nM.

What about the EC50 (Hct116) of the same molecule?
Its EC50 is 2110 nM.

And the IC50 (Erk2)?
The IC50 was 225 nM.

What does the source list for `CCNC(=S)Nc1ccc2ncc(-c3cnn(Cc4ccc(O)c(OC)c4)c3)nc2n1` [Compound 55, 1-Ethyl-3-{3-[1-(4-hydroxy-3-methoxy-benzyl)-1H-pyrazol-4-yl]-pyrido[2,3-b]pyrazin-6-yl}-thiourea]?
IC50 (PI3Kalpha): 391 nM; melting point: 242 °C; IC50 (Erk2): 523 nM

Which IC50 (PI3Kalpha) does the source give for `CCNC(=O)Nc1ccc2ncc(-c3cnn(Cc4ccc(OC)c(OC)c4)c3)nc2n1` [Compound 42, 1-{3-[1-(3,4-Dimethoxy-benzyl)-1H-pyrazol-4-yl]-pyrido[2,3-b]pyrazin-6-yl}-3-ethyl-urea] here?
Its IC50 is 274 nM.

What about the EC50 (Hct116) of the same molecule?
The EC50 was 1980 nM.

And the melting point?
Its melting point is 205 °C.

What about the IC50 (Erk2) of the same molecule?
Its IC50 is 43 nM.

Which IC50 (PI3Kalpha) does the source give for `CCNC(=S)Nc1ccc2ncc(-c3cnn(Cc4cccc(OC)c4F)c3)nc2n1` [Compound 29, 1-Ethyl-3-{3-[1-(2-fluoro-3-methoxy-benzyl)-1H-pyrazol-4-yl]-pyrido[2,3-b]pyrazin-6-yl}-thiourea] here?
Its IC50 is 112 nM.

And the EC50 (Hct116)?
Its EC50 is 2560 nM.

And the melting point?
Its melting point is 215 to 220 °C.

And the IC50 (Erk2)?
Its IC50 is 492 nM.

With `CCNC(=S)Nc1ccc2ncc(-c3cnn(Cc4cccc(OC(F)F)c4)c3)nc2n1` [Compound 27, 1-{3-[1-(3-Difluoromethoxy-benzyl)-1H-pyrazol-4-yl]-pyrido[2,3-b]pyrazin-6-yl}-3-ethyl-thiourea] as the molecule, how does the IC50 (PI3Kalpha) read?
Its IC50 is 59 nM.

And the EC50 (Hct116)?
Its EC50 is 1530 nM.

What about the IC50 (Erk2) of the same molecule?
Its IC50 is 750 nM.

For `CCNC(=S)Nc1ccc2ncc(-c3cnn(Cc4ccc(O)cc4)c3)nc2n1` [Compound 210, 1-Ethyl-3-{3-[1-(4-hydroxy-benzyl)-1H-pyrazol-4-yl]-pyrido[2,3-b]pyrazin-6-yl}-thiourea], which IC50 (PI3Kalpha) is on record?
Its IC50 is 208 nM.

And the EC50 (Hct116)?
The EC50 was 1700 nM.

And the melting point?
The melting point was 257 °C.

What about the IC50 (Erk2) of the same molecule?
Its IC50 is 225 nM.

With `CCNC(=S)Nc1ccc2ncc(-c3cnn(CCCc4ccccc4)c3)nc2n1` [Compound 44, 1-Ethyl-3-{3-[1-(3-phenyl-propyl)-1H-pyrazol-4-yl]-pyrido[2,3-b]pyrazin-6-yl}-thiourea] as the molecule, how does the melting point read?
The melting point was 206 to 208 °C.

Which IC50 (PI3Kalpha) does the source give for `CCNC(=S)Nc1ccc2ncc(-c3cnn(Cc4ccccc4)c3)nc2n1` [Compound 45, 1-[3-(1-Benzyl-1H-pyrazol-4-yl)-pyrido[2,3-b]pyrazin-6-yl]-3-ethyl-thiourea] here?
The IC50 was 249 nM.

What about the EC50 (Hct116) of the same molecule?
Its EC50 is 1950 nM.

What about the melting point of the same molecule?
The melting point was 252 °C.

What about the IC50 (Erk2) of the same molecule?
The IC50 was 272 nM.

For `CCNC(=O)Nc1ccc2ncc(-c3ccc(CO)s3)nc2n1` [Compound 396, 1-Ethyl-3-[3-(5-hydroxymethyl-thiophen-2-yl)-pyrido[2,3-b]pyrazin-6-yl]-urea], which melting point is on record?
Its melting point is 222 °C.

For `CCNC(=S)Nc1ccc2ncc(-c3cnn(Cc4cccc(OC)c4)c3)nc2n1` [Compound 40, 1-Ethyl-3-{3-[1-(3-methoxy-benzyl)-1H-pyrazol-4-yl]-pyrido[2,3-b]pyrazin-6-yl}-thiourea], which IC50 (PI3Kalpha) is on record?
The IC50 was 168 nM.

What about the EC50 (Hct116) of the same molecule?
Its EC50 is 2570 nM.

And the melting point?
Its melting point is 217 to 220 °C.

And the IC50 (Erk2)?
Its IC50 is 336 nM.

For `CCNC(=S)Nc1ccc2ncc(-c3cnn(Cc4cccc(C)c4)c3)nc2n1` [Compound 41, 1-Ethyl-3-{3-[1-(3-methyl-benzyl)-1H-pyrazol-4-yl]-pyrido[2,3-b]pyrazin-6-yl}-thiourea], which IC50 (PI3Kalpha) is on record?
Its IC50 is 184 nM.

And the EC50 (Hct116)?
Its EC50 is 3010 nM.

And the melting point?
Its melting point is 258 to 261 °C.

What about the IC50 (Erk2) of the same molecule?
The IC50 was 400 nM.

With `CCNC(=S)Nc1ccc2ncc(-c3cnn(Cc4ccc(OC)cc4)c3)nc2n1` [Compound 23, 1-Ethyl-3-{3-[1-(4-methoxy-benzyl)-1H-pyrazol-4-yl]-pyrido[2,3-b]pyrazin-6-yl}-thiourea] as the molecule, how does the melting point read?
The melting point was 237 °C.

For `CCNC(=S)Nc1ccc2ncc(-c3cnn(Cc4cccc(N(C)C)c4)c3)nc2n1` [Compound 37, 1-{3-[1-(3-Dimethylamino-benzyl)-1H-pyrazol-4-yl]-pyrido[2,3-b]pyrazin-6-yl}-3-ethyl-thiourea], which melting point is on record?
Its melting point is 215 °C.

With `CCNC(=S)Nc1ccc2ncc(-c3cnn(Cc4cc(OC)c(OC)c(OC)c4)c3)nc2n1` [Compound 46, 1-Ethyl-3-{3-[1-(3,4,5-trimethoxy-benzyl)-1H-pyrazol-4-yl]-pyrido[2,3-b]pyrazin-6-yl}-thiourea] as the molecule, how does the melting point read?
Its melting point is 232 °C.

For `COCCNC(=S)Nc1ccc2ncc(-c3cnn(Cc4ccccc4)c3)nc2n1` [Compound 31, 1-[3-(1-Benzyl-1H-pyrazol-4-yl)-pyrido[2,3-b]pyrazin-6-yl]-3-(2-methoxy-ethyl)-thiourea], which melting point is on record?
Its melting point is 219 °C.

For `CCNC(=O)Nc1ccc2ncc(-c3cnn(Cc4cccc(O)c4)c3)nc2n1` [Compound 4, 1-Ethyl-3-{3-[1-(3-hydroxy-benzyl)-1H-pyrazol-4-yl]-pyrido[2,3-b]pyrazin-6-yl}-urea], which melting point is on record?
The melting point was 242 °C.

For `CCNC(=S)Nc1ccc2ncc(-c3cnn(Cc4ccccc4C)c3)nc2n1` [Compound 52, 1-Ethyl-3-{3-[1-(2-methyl-benzyl)-1H-pyrazol-4-yl]-pyrido[2,3-b]pyrazin-6-yl}-thiourea], which melting point is on record?
The melting point was 252 to 255 °C.

Which melting point does the source give for `CCNC(=S)Nc1ccc2ncc(-c3cnn(Cc4cc(OC)ccc4OC)c3)nc2n1` [Compound 19, 1-{3-[1-(2,5-Dimethoxy-benzyl)-1H-pyrazol-4-yl]-pyrido[2,3-b]pyrazin-6-yl}-3-ethyl-thiourea] here?
Its melting point is 225 °C.

Which melting point does the source give for `CCNC(=O)Nc1ccc2ncc(-c3cnn(Cc4ccc(O)c(OC)c4)c3)nc2n1` [Compound 54, 1-Ethyl-3-{3-[1-(4-hydroxy-3-methoxy-benzyl)-1H-pyrazol-4-yl]-pyrido[2,3-b]pyrazin-6-yl}-urea] here?
Its melting point is 237 °C.

Which melting point does the source give for `CCNC(=O)Nc1ccc2ncc(-c3cnn(Cc4cccc(C)c4)c3)nc2n1` [Compound 13, 1-Ethyl-3-{3-[1-(3-methyl-benzyl)-1H-pyrazol-4-yl]-pyrido[2,3-b]pyrazin-6-yl}-urea] here?
The melting point was 208 to 210 °C.

With `CCNC(=O)Nc1ccc2ncc(-c3cnn(Cc4ccc(OC(F)(F)F)cc4)c3)nc2n1` [Compound 6, 1-Ethyl-3-{3-[1-(4-trifluoromethoxy-benzyl)-1H-pyrazol-4-yl]-pyrido[2,3-b]pyrazin-6-yl}-urea] as the molecule, how does the melting point read?
The melting point was 231 °C.

For `CCNC(=S)Nc1ccc2ncc(-c3cnn(Cc4ccc(OC)c(OC)c4)c3)nc2n1` [Compound 28, 1-{3-[1-(3,4-Dimethoxy-benzyl)-1H-pyrazol-4-yl]-pyrido[2,3-b]pyrazin-6-yl}-3-ethyl-thiourea], which IC50 (PI3Kalpha) is on record?
Its IC50 is 82 nM.

And the EC50 (Hct116)?
Its EC50 is 1650 nM.

And the melting point?
The melting point was 213 °C.

What about the IC50 (Erk2) of the same molecule?
Its IC50 is 112 nM.

Which melting point does the source give for `CCNC(=S)Nc1ccc2ncc(-c3cnn(Cc4ccc(OC)c(O)c4)c3)nc2n1` [Compound 57, 1-Ethyl-3-{3-[1-(3-hydroxy-4-methoxy-benzyl)-1H-pyrazol-4-yl]-pyrido[2,3-b]pyrazin-6-yl}-thiourea] here?
The melting point was 230 °C.
